Results on nine compounds are retold here after ChEMBL document CHEMBL1155039, “Synthetic antimicrobial peptidomimetics with therapeutic potential” (J Med Chem, 2008).

Data set [1] concerns Staphylococcus aureus. Briefly: Antibacterial activity against glycopeptide intermediate-resistant Staphylococcus aureus CCUG 43316. In kind it is functional.
Data set [2] deals with Staphylococcus aureus. Briefly: Antibacterial activity against methicillin-resistant Staphylococcus aureus ATCC 33591. In kind it is functional.
A short description of data set [3]: Toxicity in human erythrocytes assessed as hemolysis upto 1000 ug/mL. The note with it: erythrocyte. In kind it is cell-based.
Data set [4] deals with Staphylococcus epidermidis. Briefly: Antibacterial activity against methicillin-resistant Staphylococcus epidermidis ATCC 27626. In kind it is functional.
Data set [5] deals with Staphylococcus aureus. Briefly: Antibacterial activity against Staphylococcus aureus ATCC 25923. It is filed as functional.
The next data set relates to Pseudomonas aeruginosa. The experiment in a line: Antibacterial activity against Pseudomonas aeruginosa ATCC 27853. It is filed as functional.
Data set [6] has as its system Escherichia coli. The experiment in a line: Antibacterial activity against Escherichia coli ATCC 25922. In kind it is functional.
The nature of data set [7]: Toxicity in human erythrocytes assessed as hemolysis. It is filed as cell-based, Erythrocyte.
Data set [8] relates to Escherichia coli. The experiment in a line: Antibacterial activity against Escherichia coli ATCC 25922 upto 150 ug/mL. It is filed as functional, organism-based.
Another data set deals with Plasma. The experiment in a line: Stability assessed as degradation in human plasma upto 4 days. In kind it is ADME, cell-free. The note with it: 96 h.
The subject of data set [9] is Escherichia coli. Briefly: Effect on inner membrane destabilization in Escherichia coli ML-35p at 256 ug/mL. In kind it is functional, organism-based.
Data set [10] relates to Escherichia coli. The experiment in a line: Effect on outer membrane destabilization in Escherichia coli ML-35p at 128 ug/mL. It is filed as functional, organism-based.
Data set [11] has as its system Escherichia coli. Briefly: Antibacterial activity against Escherichia coli ML-35p. In kind it is functional.
Data set [12] can be described thus: Effect on permeability assessed as calcein release from 1-palmitoyl-2-oleoyl-sn-glycero-3-phosphoglycerol vesicle. It is filed as physicochemical.
A short description of data set [13]: Stability assessed as half life in human plasma. It is filed as ADME, cell-free.
In data set [14] the test system is Staphylococcus aureus. The experiment in a line: Antibacterial activity against Staphylococcus aureus ATCC 25923 at 8 times MIC after 30 mins. In kind it is functional.

Converted amounts (≈) assume the structure as drawn. “And” between values parts separate entries of the source, which are not always exact repeats. Identical values can stand only once. The source made the active and inactive calls.

In the case of `COC(=O)[C@H](CCCNC(=N)N)NC(=O)[C@@H](Cc1c(C(C)(C)C)[nH]c2c(C(C)(C)C)cc(C(C)(C)C)cc12)NC(=O)[C@@H](N)CCCNC(=N)N`, the MIC (in general, the least concentration at which growth counts as inhibited) is 21 µM (≈ 14.7 µg/mL) against Staphylococcus aureus [1]; 7.2 µM (≈ 5.03 µg/mL) with Staphylococcus aureus [2]; 3.6 µM (≈ 2.52 µg/mL) in data set [4]; 7.2 µM (≈ 5.03 µg/mL) in the data set on Staphylococcus aureus [5]; 57 µM (≈ 39.8 µg/mL) against Pseudomonas aeruginosa; 72 µM (≈ 50.3 µg/mL) against Escherichia coli [6]. In addition, the Activity entry in data set [3] was “Not Active”.

Regarding `CC(C)(C)c1cc(C(C)(C)C)c2[nH]c(C(C)(C)C)c(C[C@H](NC(=O)[C@@H](N)CCCNC(=N)N)C(=O)N[C@@H](CCCNC(=N)N)C(N)=O)c2c1`, the minimal inhibitory concentration (MIC) in the data set with Staphylococcus aureus [1] amounted to 22 µM (≈ 15 µg/mL); in the data set on Staphylococcus aureus [2], 11 µM (≈ 7.52 µg/mL); in data set [4], 3.7 µM (≈ 2.53 µg/mL); in the data set with Staphylococcus aureus [5], 11 µM (≈ 7.52 µg/mL); in the data set with Pseudomonas aeruginosa it was 44 µM (≈ 30.1 µg/mL); against Escherichia coli [6] it was 88 µM (≈ 60.2 µg/mL). The Activity entry in data set [3] was “Not Active”.

As for `CC(C)(C)c1cc(C(C)(C)C)c2[nH]c(C(C)(C)C)c(C[C@H](N)C(=O)N[C@@H](CCCNC(=N)N)C(=O)NCc3ccccc3)c2c1`, the MIC is 8.1 µM (≈ 5 µg/mL) against Staphylococcus aureus [1]; 4 µM (≈ 2.47 µg/mL) against Staphylococcus aureus [2]; 4 µM (≈ 2.47 µg/mL) in data set [4]; 4 µM (≈ 2.47 µg/mL) against Staphylococcus aureus [5]; 12 µM (≈ 7.41 µg/mL) in the data set with Pseudomonas aeruginosa; 16 µM (≈ 9.89 µg/mL) in the data set on Escherichia coli [6]. For the same compound, the EC50 – broadly, the concentration at which the effect is half-maximal – in [7] was determined as 97 µM.

`CC(C)(C)c1cc(C(C)(C)C)c2[nH]c(C(C)(C)C)c(C[C@H](NC(=O)[C@@H](N)CCCNC(=N)N)C(=O)N[C@@H](CCCNC(=N)N)C(=O)NCc3ccccc3)c2c1`: the MIC amounted to 3.2 µM (≈ 2.48 µg/mL) against Staphylococcus aureus [1]; 3.2 µM (≈ 2.48 µg/mL) against Staphylococcus aureus [2]; 1.3 µM (≈ 1.01 µg/mL) in [4]; 3.2 µM (≈ 2.48 µg/mL) with Staphylococcus aureus [5]; 6.5 µM (≈ 5.03 µg/mL) in the data set with Pseudomonas aeruginosa; 9.7 µM (≈ 7.51 µg/mL) in the data set on Escherichia coli [6]. The EC50 in data set [7] stood at 116 µM.

For `CC(C)(C)c1cc(C(C)(C)C)c2[nH]c(C(C)(C)C)c(C[C@H](NC(=O)[C@@H](N)CCCCN)C(=O)N[C@@H](CCCNC(=N)N)C(N)=O)c2c1`, the MIC in the data set on Staphylococcus aureus [1] turned out to be 46 µM (≈ 30.2 µg/mL); with Staphylococcus aureus [2] it was 23 µM (≈ 15.1 µg/mL); in data set [4], 3.8 µM (≈ 2.49 µg/mL); in the data set on Staphylococcus aureus [5], 23 µM (≈ 15.1 µg/mL); in the data set on Pseudomonas aeruginosa, 76 µM (≈ 49.9 µg/mL); in the data set on Escherichia coli [6], 107 µM (≈ 70.2 µg/mL). For the same compound, the Activity result in data set [3] is listed as “Not Active”.

Take `CC(C)(C)c1cc(C(C)(C)C)c2[nH]c(C(C)(C)C)c(C[C@H](N)C(=O)N[C@@H](CCCNC(=N)N)C(N)=O)c2c1`: the MIC in the data set on Staphylococcus aureus [1] was 57 µM (≈ 30.1 µg/mL); with Staphylococcus aureus [2], 28 µM (≈ 14.8 µg/mL); in [4], 14 µM (≈ 7.39 µg/mL); against Staphylococcus aureus [5], 28 µM (≈ 14.8 µg/mL); in the data set on Pseudomonas aeruginosa it was 57 µM (≈ 30.1 µg/mL). Further, in data set [7], the EC50 turned out to be 578 µM. The outcome in the data set with Escherichia coli [8] was inactive.

Consider `COC(=O)[C@H](CCCNC(=N)N)NC(=O)[C@@H](N)Cc1c(C(C)(C)C)[nH]c2c(C(C)(C)C)cc(C(C)(C)C)cc12`, for which the MIC with Staphylococcus aureus [1] was found to be 14 µM (≈ 7.6 µg/mL); with Staphylococcus aureus [2], 9.2 µM (≈ 4.99 µg/mL); in data set [4], 4.6 µM (≈ 2.5 µg/mL); against Staphylococcus aureus [5] it was 9.2 µM (≈ 4.99 µg/mL); with Pseudomonas aeruginosa, 55 µM (≈ 29.9 µg/mL); with Escherichia coli [6], 55 µM (≈ 29.9 µg/mL). For the same compound, in [7], the EC50 is 451 µM.

With `COC(=O)[C@H](CCCNC(=N)N)NC(=O)[C@H](N)Cc1c(C(C)(C)C)[nH]c2c(C(C)(C)C)cc(C(C)(C)C)cc12`, the MIC in the data set on Staphylococcus aureus [1] turned out to be 55 µM (≈ 29.9 µg/mL); in the data set on Staphylococcus aureus [2], 28 µM (≈ 15.2 µg/mL); in [4], 14 µM (≈ 7.6 µg/mL); in the data set on Staphylococcus aureus [5] it was 28 µM (≈ 15.2 µg/mL); against Pseudomonas aeruginosa, 92 µM (≈ 49.9 µg/mL). Further, in data set [7], the EC50 came out at 503 µM. For the same compound, the result with Escherichia coli [8] was inactive.

For the compound `COC(=O)[C@H](CCCNC(=N)N)NC(=O)[C@H](Cc1c(C(C)(C)C)[nH]c2c(C(C)(C)C)cc(C(C)(C)C)cc12)NC(=O)[C@@H](N)CCCNC(=N)N`, the Activity result in the data set on Plasma is reported as “Stable”; in [12], “Dose-dependent effect”. Further, the outcome in the data set with Escherichia coli [9] and with Escherichia coli [10] was Active. In addition, the minimum inhibitory concentration (MIC) was 11 µM (≈ 7.69 µg/mL) in the data set on Staphylococcus aureus [1]; 3.6 µM (≈ 2.52 µg/mL) against Staphylococcus aureus [2]; 1 µg/mL and 1.4 µM in data set [4]; 7.2 µM (≈ 5.03 µg/mL) in the data set on Staphylococcus aureus [5]; 32 µg/mL (≈ 45.8 µM) in the data set on Escherichia coli [11]; 21 µM (≈ 14.7 µg/mL) against Pseudomonas aeruginosa. For the same compound, in the data set on Escherichia coli [6], the lowest concentration to inhibit growth (MIC) was 29 µM (≈ 20.3 µg/mL). In addition, the EC50 in [7] amounted to 1010 µM. Further, the half-life (commonly the time needed for the level to fall by half in the phase considered) in data set [13] is 2 h. In the data set on Staphylococcus aureus [14], this compound came in with a CFU/ml of 10000.
